Measurements taken from patent US7879835B2 (Korea Research Institute of Chemical Technology, priority 2004, dated 2011).
Where two headings read alike, the source gives them in different places.

What was measured:
[1] = system: osteoclast (TRAP-positive multinuclear cell) formation; experiment: Inhibitory effect on osteoclast formation (TRAP staining); format: cell-based, mice; settings: Mus musculus, Osteoclast, compared to control, read-out: Osteoclast formation inhibitory effects (%)
Outline: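 Non-adherent bone marrow cells from 7–9-week-old female mice, 2×10^5 per well, cultured 8 days with M-CSF (20 ng/ml), RANKL (30 ng/ml) and compound at 0.3, 1.0 or 3 μM. Formation scored by TRAP staining after fixation, 1 h at 37 °C, pH 5.0.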

osteoclasts = experiment: Inhibitory effect on resorption activity of osteoclast (resorption pit area on calcium phosphate-coated plate); format: cell-based, mice; settings: compared to control
Protocol: After finishing culture, the plate was washed with distilled water, and 50 μl/well of 5% sodium hypochlorite was added to the plate. The plate was let alone for 5 min, washed again with distilled water to remove the adherent cells, and dried at room temperature. Then, the area of formed resorption pits was calculated by means of Image Pro Plus software (Media Cybernetics Ver. 3.0).

rats = experiment: In vivo acute toxicity test (LD50); settings: single dose, 2 weeks observation
Protocol: In order to determine the acute toxicities of the compounds prepared in Examples, 6-week old specific pathogen-free (SPF) rats each weighing […] were divided into groups of 10 rat each.
In case of subcutaneous administration, each of the compounds was dissolved in 5% PEG400 solution to a concentration of 20 mg/ml, the resulting solution was serially diluted with 5% PEG400 solution to concentrations of 5, 2.5, 1.25 and 0.625 mg/ml, and the dilutions were subcutaneously injected once to the rats at a dose of 10 ml/kg body weight.
In case of oral administration, each of the compounds was dissolved in soybean oil to a concentration of 180 mg/ml, the resulting solution was serially diluted with soybean oil to concentrations of 80, 20 and 5 mg/ml, and the dilutions were orally administered once to the rats at a dose of 20 ml/kg body weight. […]
During 2 weeks after the administration of the compounds, the death rate, clinical symptoms and weight changes of the rats were observed, and hematological and biochemical tests on blood samples were performed. Then, the rats were sacrificed and the internal organs were visually examined to check any abnormal signs in the organs of chest and abdomen.

SMILES | inhibition at 0.3 µM ([1]; 192 h, 0.3 μM, 8 days culture with M-CSF and RANKL) [%] | inhibition at 1 µM ([1]; 192 h, 1.0 μM, 8 days culture with M-CSF and RANKL) [%] | inhibition at 3 µM ([1]; 192 h, 3.0 μM, 8 days culture with M-CSF and RANKL) [%] | Reduction (%) of the resorption pit area of osteoclasts (osteoclasts; 0.3 uM) [%] | Reduction (%) of the resorption pit area of osteoclasts (osteoclasts; 1 uM) [%] | Reduction (%) of the resorption pit area of osteoclasts (osteoclasts; 3 uM) [%] | LD50 (rats; PO) | LD50 (rats; SC) [mg/kg body weight] | inhibition at 0.1 µM ([1]; 0.1 μM (Table 4b)) [%] | inhibition at 0.3 µM ([1]; 0.3 μM (Table 4b)) [%] | inhibition at 1 µM ([1]; 1 μM (Table 4b)) [%] | inhibition at 3 µM ([1]; 3 μM (Table 4b)) [%]
CO/C=C(/C(=O)OC)c1ccc(Cl)cc1COc1ccc(OCCOC)cc1 [Compound No. 274, (E)-methyl-2-(2-((4-(2-methoxyethoxy)phenoxy)methyl)-4-chlorophenyl)-3-methoxyacrylate] | 100 | 100 | 100 | 100 | 100 | 100 | 460 mg/kg body weight | 11 |  |  |  | 
CO/C=C(/C(=O)OC)c1ccccc1COc1cccc(N2CCCCC2)c1 [Compound No. 388, (E)-methyl-2-[2-((3-(piperidin-1-yl)phenoxy)methyl)phenyl]-3-methoxyacrylate] |  |  |  |  |  |  | 110-130 mg/kg body weight |  | 0 | 99 | 100 | 100
